Data reported in the Kinase Knowledgebase extract (Sharma et al. 2016).

Target: PIK3CD (Human) (UniProt O00329)
Experiment: Enzyme Assay

Sequence of PIK3CD (Human) (O00329 whole entry, looked up): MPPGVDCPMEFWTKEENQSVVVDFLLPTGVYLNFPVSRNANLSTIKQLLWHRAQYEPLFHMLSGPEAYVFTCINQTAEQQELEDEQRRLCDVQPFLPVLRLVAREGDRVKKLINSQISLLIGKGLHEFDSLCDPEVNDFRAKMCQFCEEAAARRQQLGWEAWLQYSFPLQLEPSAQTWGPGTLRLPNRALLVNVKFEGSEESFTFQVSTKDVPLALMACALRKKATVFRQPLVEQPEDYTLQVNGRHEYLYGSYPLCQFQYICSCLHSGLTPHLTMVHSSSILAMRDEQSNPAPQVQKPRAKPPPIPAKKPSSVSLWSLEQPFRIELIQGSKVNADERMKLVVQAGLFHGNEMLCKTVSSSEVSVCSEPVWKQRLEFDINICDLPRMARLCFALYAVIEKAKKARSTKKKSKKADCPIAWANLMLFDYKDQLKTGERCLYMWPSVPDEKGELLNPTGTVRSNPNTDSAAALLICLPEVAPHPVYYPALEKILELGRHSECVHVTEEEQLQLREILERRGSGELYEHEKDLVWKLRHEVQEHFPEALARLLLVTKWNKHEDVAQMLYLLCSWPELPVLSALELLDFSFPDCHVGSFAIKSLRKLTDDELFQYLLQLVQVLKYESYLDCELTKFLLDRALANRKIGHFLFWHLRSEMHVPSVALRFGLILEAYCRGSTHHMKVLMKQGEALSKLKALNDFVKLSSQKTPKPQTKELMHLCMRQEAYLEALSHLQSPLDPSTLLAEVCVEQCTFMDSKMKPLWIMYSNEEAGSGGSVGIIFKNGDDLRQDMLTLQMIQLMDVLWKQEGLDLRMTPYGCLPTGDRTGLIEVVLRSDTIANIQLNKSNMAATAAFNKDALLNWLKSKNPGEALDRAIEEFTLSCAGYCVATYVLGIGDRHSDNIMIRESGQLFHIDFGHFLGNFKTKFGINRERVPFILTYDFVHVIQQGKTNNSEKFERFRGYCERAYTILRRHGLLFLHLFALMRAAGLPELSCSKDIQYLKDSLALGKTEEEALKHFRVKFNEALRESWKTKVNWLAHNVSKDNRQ

SMILES | IC50 [nM]
C[C@H](Nc1nc(N)nc(N)c1C#N)c1nc2cccc(Cl)c2c(=O)n1-c1cc(F)cc(C#N)c1 | 1 to 10
C[C@H](Nc1nc(N)nc(N)c1C#N)c1nc2cccc(Br)c2c(=O)n1-c1cccc(F)c1 | ≤ 1
C[C@H](Nc1nc(N)nc(N)c1C#N)c1nc2c(C#N)cc(F)cc2c(=O)n1-c1cccc(F)c1 | 1 to 10
C[C@H](Nc1nc(N)nc(N)c1Cl)c1nc2cccc(S(C)(=O)=O)c2c(=O)n1-c1cccc(F)c1 | 1 to 10
Cc1ccc(F)c2nc([C@H](C)Nc3nc(N)nc(N)c3C#N)n(-c3cc(F)cc(C#N)c3)c(=O)c12 | 1 to 10
C[C@H](Nc1nc(N)nc(N)c1C#N)c1nc2cccc(C#N)c2c(=O)n1-c1cc(F)cc(F)c1 | 1 to 10
C[C@H](Nc1nc(N)nc(N)c1Cl)c1nc2cccc(Cl)c2c(=O)n1-c1ccccc1 | ≤ 1
C[C@H](Nc1nc(N)nc(N)c1C#N)c1nc2ccc(F)cc2c(=O)n1-c1cccc(C#N)c1 | 10 to 50
Cc1ccc(Cl)c2c(=O)n(-c3cc(F)cc(F)c3)c([C@H](C)Nc3nc(N)nc(N)c3C#N)nc12 | 1 to 10
CC[C@H](Nc1nc(N)nc(N)c1C#N)c1nc2c(F)ccc(F)c2c(=O)n1-c1cccc(C#N)c1 | 10 to 50
CC(C)C[C@H](Nc1nc(N)nc(N)c1C#N)c1nc2cccc(Cl)c2c(=O)n1-c1cc(F)cc(F)c1 | 1 to 10
Cc1ccc(F)c2nc([C@H](C)Nc3nc(N)nc(N)c3C#N)n(-c3cccc(C#N)c3)c(=O)c12 | ≤ 1
CC[C@H](Nc1nc(N)nc(N)c1C#N)c1nc2cccc(F)c2c(=O)n1-c1cccc(C(F)(F)F)c1 | 10 to 50
C[C@H](Nc1nc(N)nc(N)c1C#N)c1nc2c(Cl)cccc2c(=O)n1-c1cc(F)cc(F)c1 | 1 to 10
CC[C@H](Nc1nc(N)nc(N)c1C#N)c1nc2ccccc2c(=O)n1-c1cc(F)cc(F)c1 | 10 to 50
C[C@H](Nc1nc(N)nc(N)c1C#N)c1nc2ccc(F)c(Cl)c2c(=O)n1-c1cccc(C#N)c1 | 10 to 50
C[C@H](Nc1nc(N)nc(N)c1C#N)c1nc2cccc(Cl)c2c(=O)n1-c1cccc(C(F)(F)F)c1 | 1 to 10
C[C@H](Nc1nc(N)nc(N)c1C#N)c1nc2c(F)ccc(F)c2c(=O)n1-c1ccccc1 | ≤ 1
C[C@H](Nc1nc(N)nc(N)c1C#N)c1nc2cccc(Cl)c2c(=O)n1-c1cc(Cl)cc(C(F)F)c1 | 1 to 10
C[C@H](Nc1nc(N)nc(N)c1C#N)c1nc2cccc(F)c2c(=O)n1-c1cccc(C(F)F)c1 | 1 to 10
C[C@H](Nc1nc(N)nc(N)c1C#N)c1nc2cccc(F)c2c(=O)n1-c1ccccc1 | 1 to 10
C[C@H](Nc1nc(N)nc(N)c1C#N)c1nc2cccc(C(F)F)c2c(=O)n1-c1cc(F)cc(C(F)F)c1 | 1 to 10

SMILES | IC50 [nM]
C[C@H](Nc1nc(N)nc(N)c1C#N)c1nc2cccc(F)c2c(=O)n1-c1cc(F)cc(Cl)c1 | 10 to 50
C[C@H](Nc1nc(N)nc(N)c1C#N)c1nc2cccc(C#N)c2c(=O)n1-c1cccc(F)c1 | 1 to 10
CC[C@H](Nc1nc(N)nc(N)c1C#N)c1nc2c(F)ccc(F)c2c(=O)n1-c1ccccc1 | 1 to 10
Cc1ccc(Cl)c2c(=O)n(-c3ccccc3)c([C@H](C)Nc3nc(N)nc(N)c3C#N)nc12 | ≤ 1
C[C@H](Nc1nc(N)nc(N)c1C#N)c1nc2cccc(Cl)c2c(=O)n1-c1cc(F)cc(F)c1 | ≤ 1
Cc1ccc(F)c2c(=O)n(-c3ccccc3)c([C@H](C)Nc3nc(N)nc(N)c3C#N)nc12 | 1 to 10
CC[C@H](Nc1nc(N)nc(N)c1C#N)c1nc2c(F)ccc(F)c2c(=O)n1-c1cc(F)cc(F)c1 | 10 to 50
C[C@H](Nc1nc(N)nc(N)c1C(N)=O)c1nc2cccc(Cl)c2c(=O)n1-c1cc(F)cc(F)c1 | 1 to 10
C[C@H](Nc1nc(N)nc(N)c1C#N)c1cc2cccc(Cl)c2c(=O)n1-c1ccccc1 | ≤ 1
C[C@H](Nc1nc(N)nc(N)c1C#N)c1nc2c(C(F)F)cccc2c(=O)n1-c1ccccc1 | 10 to 50
C[C@H](Nc1nc(N)nc(N)c1C#N)c1nc2cccc(Cl)c2c(=O)n1-c1cccc(C(F)F)c1 | ≤ 1
C[C@H](Nc1nc(N)nc(N)c1C#N)c1nc2ccc(F)c(Cl)c2c(=O)n1-c1cc(F)cc(F)c1 | 1 to 10
CC[C@H](Nc1nc(N)nc(N)c1C#N)c1nc2cccc(Cl)c2c(=O)n1-c1cc(F)cc(C(F)F)c1 | 1 to 10
COc1cc(C(F)F)cc(-n2c([C@H](C)Nc3nc(N)nc(N)c3C#N)nc3cccc(Cl)c3c2=O)c1 | 1 to 10
C[C@H](Nc1nc(N)nc(N)c1Cl)c1cc2cccc(Cl)c2c(=O)n1-c1ccccc1 | ≤ 1
C[C@H](Nc1ncnc(N)c1C#N)c1nc2cccc(Cl)c2c(=O)n1-c1cc(F)cc(F)c1 | 1 to 10
Cc1cccc2nc([C@H](C)Nc3nc(N)nc(N)c3C#N)n(-c3cc(F)cc(C#N)c3)c(=O)c12 | 1 to 10
C[C@H](Nc1nc(N)nc(N)c1C(N)=O)c1nc2cccc(Cl)c2c(=O)n1-c1cccc(C(F)F)c1 | 1 to 10
Cc1ccc(Cl)c2c(=O)n(-c3cccc(Cl)c3)c([C@H](C)Nc3nc(N)nc(N)c3C#N)nc12 | ≤ 1
C[C@H](Nc1nc(N)nc(N)c1C#N)c1nc2c(F)cc(F)cc2c(=O)n1-c1cc(F)cc(F)c1 | 10 to 50
C[C@H](Nc1nc(N)nc(N)c1C#N)c1nc2cccc(S(C)(=O)=O)c2c(=O)n1-c1cc(F)cc(C(F)F)c1 | 10 to 50
C[C@H](Nc1nc(N)nc(N)c1C#N)c1nc2cccc(F)c2c(=O)n1-c1cc(F)cc(C#N)c1 | 10 to 50

SMILES | IC50 [nM]
C[C@H](Nc1nc(N)nc(N)c1C#N)c1nc2cccc(S(C)(=O)=O)c2c(=O)n1-c1ccccc1 | 1 to 10
Cc1cccc2nc([C@H](C)Nc3nc(N)nc(N)c3C#N)n(-c3ccccc3)c(=O)c12 | ≤ 1
C[C@H](Nc1nc(N)nc(N)c1C#N)c1nc2cccc(F)c2c(=O)n1-c1cccc(C#N)c1 | 10 to 50
COc1cc(OC)cc(-n2c([C@H](C)Nc3nc(N)nc(N)c3C#N)nc3cccc(Cl)c3c2=O)c1 | 1 to 10
Cc1ccc(F)c2c(=O)n(-c3cc(F)cc(F)c3)c([C@H](C)Nc3nc(N)nc(N)c3C#N)nc12 | 1 to 10
Cc1ccc(F)c2c(=O)n(-c3cccc(C#N)c3)c([C@H](C)Nc3nc(N)nc(N)c3C#N)nc12 | 10 to 50
CC[C@H](Nc1nc(N)nc(N)c1C#N)c1nc2cccc(F)c2c(=O)n1-c1cccc(F)c1 | 1 to 10
COc1cccc2nc([C@H](C)Nc3nc(N)nc(N)c3C#N)n(-c3ccccc3)c(=O)c12 | 10 to 50
C[C@H](Nc1nc(N)nc(N)c1C#N)c1nc2cccc(C(F)F)c2c(=O)n1-c1ccccc1 | ≤ 1
C[C@H](Nc1nc(N)nc(N)c1C#N)c1nc2c(F)ccc(F)c2c(=O)n1-c1cccc(C#N)c1 | 10 to 50
C[C@H](Nc1nc(N)nc(N)c1C#N)c1nc2cccc(Cl)c2c(=O)n1-c1cccc(F)c1 | ≤ 1
Cc1ccc(F)c2c(=O)n(-c3cc(F)cc(C#N)c3)c([C@H](C)Nc3nc(N)nc(N)c3C#N)nc12 | 10 to 50
C[C@H](Nc1nc(N)nc(N)c1C#N)c1nc2c(Cl)ccc(Cl)c2c(=O)n1-c1cc(F)cc(F)c1 | 1 to 10
C[C@H](Nc1nc(N)nc(N)c1C#N)c1nc2c(C#N)cccc2c(=O)n1-c1cccc(C(F)F)c1 | 1 to 10
C[C@H](Nc1nc(N)nc(N)c1C#N)c1nc2ccc(F)c(Cl)c2c(=O)n1-c1cc(F)cc(C(F)F)c1 | 10 to 50
C[C@H](Nc1nc(N)nc(N)c1C#N)c1nc2c(C(F)F)cccc2c(=O)n1-c1cc(F)cc(F)c1 | 10 to 50
C[C@H](Nc1nc(N)nc(N)c1C#N)c1nc2cccc(S(C)(=O)=O)c2c(=O)n1-c1cc(F)cc(F)c1 | 1 to 10
Cc1cccc2nc([C@H](C)Nc3nc(N)nc(N)c3C#N)n(-c3cc(F)cc(F)c3)c(=O)c12 | ≤ 1
C[C@H](Nc1nc(N)nc(N)c1C#N)c1nc2c(F)ccc(C#N)c2c(=O)n1-c1cc(F)cc(F)c1 | 10 to 50
CC[C@H](Nc1nc(N)nc(N)c1C#N)c1nc2c(Cl)ccc(F)c2c(=O)n1-c1cc(F)cc(F)c1 | 10 to 50
C[C@H](Nc1nc(N)nc(N)c1C#N)c1nc2cccc(C#N)c2c(=O)n1-c1ccccc1 | 1 to 10
